For 30 molecules, EC50 results are on record in patent US20260083704A1, “LXR MODULATORS WITH BICYCLIC CORE MOIETY FOR TREATING DYSLIPIDEMIAS” (OrsoBio, Inc., priority 2022, published 2026).

For assay [1], the target named is T1, LXRβ (Homo sapiens, UniProt P55055).
T1 construct: LXRβ (amino acids 156-461); expressed in transfected cells; host or cells: HEK293
T1 sequence (P55055 156-460): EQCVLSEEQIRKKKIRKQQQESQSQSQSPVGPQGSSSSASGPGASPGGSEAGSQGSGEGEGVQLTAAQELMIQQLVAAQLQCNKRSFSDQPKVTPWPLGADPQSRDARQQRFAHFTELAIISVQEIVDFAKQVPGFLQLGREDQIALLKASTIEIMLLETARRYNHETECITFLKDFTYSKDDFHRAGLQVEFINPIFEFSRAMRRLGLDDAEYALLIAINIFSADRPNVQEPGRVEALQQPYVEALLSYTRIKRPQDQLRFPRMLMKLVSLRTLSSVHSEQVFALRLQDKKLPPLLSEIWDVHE
In words: LXR Gal4 reporter transient transfection assay (mammalian two-hybrid, HEK293), LXRβ. Type of assay: cell-based. Particulars: ligand-binding domain (LBD) of LXRβ, HEK293; read-out: LBD-M2H Gal4β. The method, then:
LXRα and LXRβ activity status was determined via detection of interaction with coactivator and corepressor proteins in mammalian two-hybrid experiments (M2H). For this, via transient transfection the full length (FL) proteins of LXRα (amino acids 1-447; NP005684; SEQ ID NO:1) or LXRβ-(amino acids 1-461; NP009052; SEQ ID NO:2) or the ligand-binding domains (LBD) of LXRα (amino acids 155-447 SEQ ID NO:3) or LXRβ (amino acids 156-461; SEQ ID NO:4) were expressed from pCMV-AD (Stratagene) as fusions to the transcriptional activation domain of NFkB. As cofactors, domains of either the steroid receptor coactivator 1 (SRC1; amino acids 552-887; SEQ ID NO:5) or of the corepressor NCoR (amino acids 1906-2312; NP006302; SEQ ID NO:6) were expressed as fusions to the DNA binding domain of the yeast transcription factor GAL4 (from pCMV-BD; Stratagene). Interaction was monitored via activation of a coexpressed Firefly Luciferase Reporter gene under control of a promoter containing repetitive GAL4 response elements (vector pFRLuc; Stratagene). Transfection efficiency was controlled via cotransfection of constitutively active pRL-CMV Renilla reniformis luciferase reporter (Promega). HEK293 cells were grown in minimum essential medium (MEM) with 2 mM L-glutamine and Earle's balanced salt solution supplemented with 8.3% fetal bovine serum, 0.1 mM non-essential amino acids, 1 mM sodium pyruvate, at 37° C. in 5% CO2. 3.5×10^4 cells/well were plated in 96-well cell culture plates in growth medium supplemented with 8.3% fetal bovine serum for 16-20 h to ˜90% confluency. For transfection, medium was taken off and LXR and cofactor expressing plasmids as well as the reporter plasmids are added in 30 μL OPTIMEM/well including polyethylene-imine (PEI) as vehicle. Typical amounts of plasmids transfected/well: pCMV-AD-LXR (5 ng), pCMV-BD-cofactor (5 ng), pFR-Luc (100 ng), pRL-CMV (0.5 ng). Compound stocks were prepared in DMSO, prediluted in MEM to a total volume of 120 μL, and added 4 h after addition of the transfection mixture (final vehicle concentration not exceeding 0.2%). Cells were incubated for additional 16 h, lysed for 10 min in 1×Passive Lysis Buffer (Promega) and Firefly and Renilla luciferase activities were measured sequentially in the same cell extract using buffers containing D-luciferine and coelenterazine, respectively. Measurements of luminescence were done in a BMG-luminometer.
The potencies of Compound 21/3 and its analog, Compound pre-6/3, against LXRα and LXRβ were evaluated in biochemical binding assays, cellular mammalian two-hybrid (M2H) interaction assays evaluating nuclear receptor co-repressor (NCOR) recruitment, and cellular reporter assays evaluating transcriptional activity (Table 5).

For assay [2], the target named is T2, GST-LXRβ ligand-binding domain (Homo sapiens, UniProt P55055).
T2 construct: amino acids 156-461; NP009052; made in house; host or cells: E. coli
T2 sequence (P55055 156-460 limits assumed): T1 sequence (P55055 156-460)
Briefly: TR-FRETβ activity assay (NCoA3 coactivator peptide recruitment). The assay is classed as biochemical. Particulars: 1 μM 24(S)-25-epoxycholesterol prestimulation. The essentials: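 E. coli-expressed GST-LXRβ LBD (aa 156-461, 76 nM) with biotinylated NCoA3 peptide (400 nM) in Tris/HCl pH 6.8 containing 1 μM 24(S)-25-epoxycholesterol agonist. Compounds tested at 50 μM down to 0.002 μM in triplicate. TR-FRET (Tb cryptate/XL665, ex 340, em 615/665 nm) read after 1 h at 4° C.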

In assay [3] the target is T3, LXRβ (Homo sapiens, UniProt P55055).
T3 sequence (P55055 1-460): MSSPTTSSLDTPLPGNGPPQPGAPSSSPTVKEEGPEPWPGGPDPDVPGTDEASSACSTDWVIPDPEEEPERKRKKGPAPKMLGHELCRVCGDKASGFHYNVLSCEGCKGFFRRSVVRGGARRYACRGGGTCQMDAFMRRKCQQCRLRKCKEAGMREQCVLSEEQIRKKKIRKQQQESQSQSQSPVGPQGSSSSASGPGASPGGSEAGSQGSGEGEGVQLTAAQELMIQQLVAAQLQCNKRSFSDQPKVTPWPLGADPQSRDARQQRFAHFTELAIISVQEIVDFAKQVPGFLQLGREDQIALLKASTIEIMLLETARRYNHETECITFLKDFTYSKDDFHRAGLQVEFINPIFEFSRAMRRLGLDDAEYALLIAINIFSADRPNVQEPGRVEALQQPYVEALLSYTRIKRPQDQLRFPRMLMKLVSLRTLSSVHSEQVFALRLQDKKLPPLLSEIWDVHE
Briefly: LXR Gal4 reporter transient transfection assay (mammalian two-hybrid, HEK293), LXRβ. Also on record: LXRβ (amino acids 156-461); expressed in transfected cells; host or cells: HEK293. Type of assay: cell-based. Particulars: full length (FL) LXRβ, HEK293; read-out: FL-M2H Gal4β. In outline: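 HEK293 cells transiently co-transfected with full-length or LBD LXRα/LXRβ fused to NFkB activation domain, GAL4-DBD-fused SRC1 or NCoR cofactor domain, GAL4-responsive firefly luciferase reporter and Renilla control. Compound added 4 h post-transfection (≤0.2% DMSO), incubated 16 h; firefly and Renilla luminescence read sequentially.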

Read-outs that look alike come from different tables or passages of the source.

For `Cc1ccc(S(=O)(=O)n2c(-c3ccsc3)c(-c3ccsc3C#N)c3ccccc32)cc1` [1/23], the values for the EC50 (at LXRβ [1]; in assay [2]) were less than 100 nM and 100 to 1000 nM, respectively.

`Cc1cc(C)c(S(=O)(=O)n2c(-c3cccs3)c(-c3ccsc3C#N)c3ccccc32)c(C)c1` [1/26]: the results for the EC50 (at LXRβ [1]; in assay [2]) were less than 100 nM and 1000 to 10000 nM, respectively.

`N#Cc1sccc1-c1c(-c2cccs2)n(S(=O)(=O)c2cccc3ccccc23)c2ccccc12` [1/27]: the values for the EC50 (on LXRβ [1]; in assay [2]) were less than 100 nM and 1000 to 10000 nM, respectively.

For `Cn1cnc(S(=O)(=O)n2c(-c3cccs3)c(-c3ccsc3C#N)c3ccccc32)c1` [1/28], the EC50 at LXRβ [1] is less than 100 nM; in assay [2], 1000 to 10000 nM.

With `COc1ccc2c(-c3ccsc3C#N)c(-c3cccs3)n(S(=O)(=O)c3ccc(Cl)cc3)c2c1` [1/40], the EC50 was less than 100 nM on LXRβ [1] and 1000 to 10000 nM in assay [2].

In the case of `N#Cc1sccc1-c1c(-c2ccccc2)n(S(=O)(=O)c2cccnc2)c2ccccc12` [1/41], the EC50 was less than 100 nM at LXRβ [1] and 1000 to 10000 nM in assay [2].

Regarding `Cc1ncc(S(=O)(=O)n2c(-c3ccccc3)c(-c3ccsc3C#N)c3ccccc32)s1` [1/42], the EC50 at LXRβ [1] was less than 100 nM; in assay [2], 1000 to 10000 nM.

Turning to `O=C(O)C1CC1c1cccc(-c2c(-c3c(Cl)cccc3Cl)c3cc(F)ccc3n2S(=O)(=O)c2ccc(C(F)F)cc2)c1` (stereo not drawn) [11/69], the EC50 (at LXRβ [3]; in assay [2]) was less than 100 nM in each case.

Regarding `Cc1ccc(S(=O)(=O)n2c(-c3cccc(-c4ccc(C(=O)O)c(C)c4Cl)c3)c(-c3ccsc3C#N)c3cc(F)ccc32)cc1` [12/1], the EC50 at LXRβ [3] is less than 100 nM; in assay [2] it was 100 to 1000 nM.

For `Cc1ccc(S(=O)(=O)n2c(-c3cccc(-c4cc(F)c(C(=O)O)cc4Cl)c3)c(-c3ccsc3C#N)c3cc(F)ccc32)cc1` [12/2], the results for the EC50 (at LXRβ [3]; in assay [2]) were less than 100 nM and 100 to 1000 nM, respectively.

As for `Cc1ccc(S(=O)(=O)n2c(-c3cccc(-c4ccc(C(=O)O)c(F)c4Cl)c3)c(-c3ccsc3C#N)c3cc(F)ccc32)cc1` [12/3], the EC50 at LXRβ [3] is less than 100 nM; in assay [2], 100 to 1000 nM.

For `COc1cc(-c2cccc(-c3c(-c4ccsc4C#N)c4cc(F)ccc4n3S(=O)(=O)c3ccc(C)cc3)c2)c(Cl)cc1C(=O)O` [12/4], the EC50 at LXRβ [3] was less than 100 nM; in assay [2], 100 to 1000 nM.

Regarding `COc1c(C(=O)O)ccc(-c2cccc(-c3c(-c4ccsc4C#N)c4cc(F)ccc4n3S(=O)(=O)c3ccc(C)cc3)c2)c1Cl` [12/5], the EC50 (on LXRβ [3]; in assay [2]) was less than 100 nM in each case.

As to `Cc1ccc(S(=O)(=O)n2c(-c3cccc(-c4cc(C(=O)O)n[nH]4)c3)c(-c3ccsc3C#N)c3cc(F)ccc32)cc1` [12/6], the EC50 (at LXRβ [3]; in assay [2]) was 1000 to 10000 nM throughout.

Take `Cc1ccc(S(=O)(=O)n2c(-c3cccc(-c4cc(C(=O)O)nn4C)c3)c(-c3ccsc3C#N)c3cc(F)ccc32)cc1` [12/7]: the EC50 (at LXRβ [3]; in assay [2]) was 100 to 1000 nM in each case.

For the molecule `Cc1ccc(S(=O)(=O)n2c(-c3cccc(-c4cc(C(=O)O)nn4C(C)C)c3)c(-c3ccsc3C#N)c3cc(F)ccc32)cc1` [12/8], the figures for the EC50 (on LXRβ [3]; in assay [2]) were 100 to 1000 nM and 1000 to 10000 nM, respectively.

Turning to `Cc1ccc(S(=O)(=O)n2c(-c3cccc(-c4ccc5c(C(=O)O)n[nH]c5c4)c3)c(-c3ccsc3C#N)c3cc(F)ccc32)cc1` [12/9], the EC50 (at LXRβ [3]; in assay [2]) was 100 to 1000 nM in each case.

With `N#Cc1cccc(C#N)c1-c1c(-c2cccc(-c3ccc(S(=O)(=O)O)cc3Cl)c2)n(S(=O)(=O)c2ccc(C(F)F)cc2)c2ccc(F)cc12` [12/10], the EC50 (on LXRβ [3]; in assay [2]) was less than 100 nM each time.

For the molecule `COc1ccc(S(=O)(=O)n2c(-c3ccccc3)c(-c3cc4ccccc4nc3C#N)c3ccccc32)cc1` [20/17], the EC50 at LXRβ [1] was 100 to 1000 nM.

In the case of `COc1ccc(S(=O)(=O)n2c(-c3ccccc3)c(-c3c(C#N)sc4ccccc34)c3ccccc32)cc1` [20/18], the EC50 on LXRβ [1] was less than 100 nM.

Consider `N#Cc1sccc1-c1c(-c2cccc(-c3ccc(C(=O)O)cc3)c2)n(S(=O)(=O)c2ccc3c(c2)CCC3)c2ccc(F)cc12` [23/3], for which the EC50 is less than 100 nM at LXRβ [3] and 100 to 1000 nM in assay [2].

In the case of `Cc1ccc(S(=O)(=O)n2c(-c3cccc(-c4cncc(C(C)(C)C(=O)O)c4)c3)c(-c3ccsc3C#N)c3ccccc32)cc1` [30/3], at LXRβ [1], the EC50 lay in the range of 100 to 1000 nM.

Turning to `CC(C)(O)c1ccc(S(=O)(=O)n2c(-c3cccc(-c4ccc(C(=O)O)cc4Cl)c3)c(-c3ccccc3C#N)c3cc(F)ccc32)cc1` [30/16], the EC50 at LXRβ [3] was in the range of 100 to 1000 nM; in assay [2], 1000 to 10000 nM.

With `COC(=O)C(C)(C)N(C)C(=O)C1CN(c2cccc(-c3c(-c4ccsc4C#N)c4cc(F)ccc4n3S(=O)(=O)c3ccc(C)cc3)c2)C1` [32/2], the EC50 (on LXRβ [3]; in assay [2]) was 100 to 1000 nM throughout.

In the case of `Cc1ccc(S(=O)(=O)n2c(-c3cccc(-c4ccc(C(=O)NS(C)(=O)=O)cc4Cl)c3)c(-c3ccsc3C#N)c3cc(F)ccc32)cc1` [32/4], the EC50 (at LXRβ [3]; in assay [2]) was less than 100 nM each time.

For the molecule `Cc1ccc(S(=O)(=O)n2c(-c3cccc(-c4ccc(C(=O)O)nc4C)c3)c(-c3ccsc3C#N)c3cc(F)ccc32)cc1` [36/1], the results for the EC50 (on LXRβ [3]; in assay [2]) were less than 100 nM and 100 to 1000 nM, respectively.

On to `Cc1ccc(S(=O)(=O)n2c(-c3cccc(-c4cccc(S(C)(=O)=Nc5nnn[nH]5)c4)c3)c(-c3ccsc3C#N)c3cc(F)ccc32)cc1` (stereo not drawn) [37/1], for which the EC50 (on LXRβ [3]; in assay [2]) was 100 to 1000 nM each time.

In the case of `O=C(O)c1ccc(-c2cccc(-c3c(-c4ccccc4)c4cc(F)ccc4n3S(=O)(=O)c3ccc(C(F)F)cc3)c2)c(Cl)c1` [C11/39], the EC50 is less than 100 nM at LXRβ [3] and 100 to 1000 nM in assay [2].

Consider `Cc1ccc(S(=O)(=O)n2c(-c3cccc(-c4ccc(C(C(=O)O)N(C)C)cc4Cl)c3)c(-c3ccsc3C#N)c3cc(F)ccc32)cc1` (stereo not drawn) [Compound 3], for which the EC50 (on LXRβ [3]; in assay [2]) was less than 100 nM in each case.

Turning to `Cc1ccc(S(=O)(=O)n2c(-c3cccc(C4CC4C(=O)O)c3)c(-c3ccsc3C#N)c3ncccc32)cc1` (stereo not drawn) [Compound 4], the results for the EC50 (on LXRβ [3]; in assay [2]) were 100 to 1000 nM and 1000 to 10000 nM, respectively.
